The values that follow come from EP0421419A2, “Tocotrienols in the treatment of hypercholesterolemia, hyperlipidemia and thromboembolic disorders” (Bristol-Myers Squibb Company, priority 1989, dated 1991).

Like-named read-outs stand apart in the source and are kept apart here.

For one assay, the system named is platelet aggregation. The experiment in a line: Rabbit biolaser ear chamber antithrombotic model. The assay is classed as in vivo. The conditions noted are these: 100mg/kg oral. How it is done: The antithrombotic properties of gamma-tocotrienol were evaluated in a rabbit biolaser ear chamber model. Fasted rabbits were orally dosed with either vehicle or vehicle plus gamma-tocotrienol at 100mg/kg. An erythrocyte contained within a capillary, near the ear surface, is ruptured with a laser shot, thereby releasing platelet aggregating ADP. gamma-Tocotrienol inhibited platelet aggregation 37% at about 2 hours after oral dosing, 44% after about 4 hours and 25% after about 6 hours as measured by averaging the mean thrombus area over 10 trials.

Assay [1] relates to Cholesterol Synthesis in HepG2 Cells. The experiment in a line: HepG2 cell culture model, 14C-acetate incorporation assay. The assay is classed as cell-based, human. To be noted: for Rel. Potency: γ-Tocotrienol = 1.0; for IC50: Homo sapiens, HepG2, read-out: IC₅₀. How it is done:
HepG2 cells obtained from the American Type Culture Collection were routinely passaged in RPMI-1640 plus 10% fetal bovine serum (FBS) and were subcultured into 35 mm diameter wells for experiments. […] The LDS medium supplement was prepared according to Cham et al., J. Lipid Res., 17: 176-181, (1976). After about 16 hours in LDS containing media, test compounds were added in dimetthylsulfoxide vehicle (0.5% v/v final conc.) for the period of time indicated in the data (generally 4 hours). Cholesterol synthesis was then directly determined by the incorporation of 2-14C-acetate (1.8-3.0 mCi/mmol) into digitonin-precipitable sterols essentially as described for the rat hepatocyte methol above. Greater than 97% of the radiolabelled sterol isolated by this procedure was cholesterol as judged by HPLC. Percent inhibition was calculated from the average of duplicates or triplicates vs. controls receiving vehicle.
The human hepatoma HepG2 cell culture model was employed to compare the intrinsic activities of the tocotrienols. HepG2 cells were incubated with the indicated compounds for about 4 hours at 10 µM. Cholestrol synthesis was assayed by 14C-acetate incorporation and HMG-CoA reductase suppression was assayed in the isolated microsomal fraction. Cholesterol synthesis inhibition was assayed by 14C-acetate incorporation after preincubation of HepG2 cells with the compounds for about 2 hours or about 4 hours (Example IV). […] As the data in Figure 1 indicate, gamma-tocotrienol has an even greater relative potency compared to alpha-tocotrienol in the HepG2 cell model than in rat hepatocytes. The IC50s from these studies are given in Table 3, in which it can be seen that the intrinsic potency of gamma-tocotrienol is over 30-fold greater than that of alpha-tocotrienol.

Assay [2] deals with Cholesterol Synthesis in Isolated Rat Hepatocytes. Put plainly: Rat hepatocyte cholesterol biosynthesis model (14C-acetate incorporation into digitonin-precipitable sterols). The conditions noted are these: rat and chicken hepatocyte system. The assay is classed as cell-based. As to the method: Primary rat parenchymal hepatocytes were prepared from male Wistar rats (180-220 g) at mid-dark in the diurnal cycle by standard collagenase perfusion method as described previously. Ingebritsen et al. J. Biol. Chem., 254: 9986-9989, (1979). Aliquots of cells were suspended (100 mg in 2 ml) in Eagle's minimum essential medium (MEM) supplemented with 2% bovine albumin, and preincubated in a shaking water bath at about 37° under 95% O₂/5% CO₂ with compounds added as given in the data. […] Following a preincubation of about 15 to about 45 minutes as indicated, cholesterol synthesis in intact cells was assayed by 2-14C-acetate (1.8 mCi/mmol, 0.5 µCi/ml) incorporation for about 30 to about 60 minutes (previously shown to be time-linear) into total digitonin-precipitable sterols. […] Percent inhibition was calculated from the average of duplicates vs. triplicate vehicle controls conducted simultaneously.
The primary rat hepatocyte assay for cholesterol bio-synthesis inhibition was conducted as described in Example 2 except the preincubation was about 45 minutes and the 14C-acetate incorporation was about 30 minutes. The indicated compounds were purified from the same natural product source as the mixture used in Example 2. […] Two-component mixtures of the constituents separated from the tocotrienol mixture were tested under the conditions indentical to Table 2A.

Assay [3] can be described thus: Pure gamma-tocotrienol capsules in hypercholesterolemic human subjects. The assay is classed as in vivo. The conditions noted are these: capsules 50 mg/capsule, after 4 weeks of feeding; serum cholesterol levels 302.5 mg/dl.

On to `CC(C)=CCC/C(C)=C/CC/C(C)=C/CCC1(C)CCc2cc(O)c(C)c(C)c2O1` (stereo not shown) [γ-Tocotrienol], for which the inhibited platelet aggregation is on record as 37% in the assay on platelet aggregation (about 2 hours after dosing, mean thrombus area over 10 trials); 44% in the assay on platelet aggregation (about 4 hours after dosing); 25% with platelet aggregation (about 6 hours after dosing). Further, the “Rel. Potency” value in assay [1] (2 hr. Incubation) and in assay [1] (4 hr. Incubation) was 1.0 throughout. Also, the IC50 was 5.9 µM in assay [1] (2 hr. Incubation) and 2.8 µM in assay [1] (4 hr. Incubation). In assay [1] (from IC50s of Table 3), the “intrinsic potency greater than that of alpha-tocotrienol” value is recorded as “over 30 fold”. In addition, in assay [2], the “times more active than alpha-tocotrienol” value is reported as “at least 5 times”. The “decrease in serum cholesterol levels” value in assay [3] came out at 35%.
